According to ChEMBL document CHEMBL1201862, “PubChem BioAssay data set” (2004):
Activity calls are given as the source filed them.

Tests used:
[1] = target: T1, RNA-binding protein pos-1 (Caenorhabditis elegans, UniProt G5EF15); experiment: disruptors of C. elegans POS-1 RNA interaction – biochemical, fluorescence polarization, dose response (AID 1964);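 further: purified POS-1 fused to maltose binding protein made in E. coli; potency of compounds blocking POS-1 binding to fluorescent RNA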
T1 sequence (G5EF15 whole entry): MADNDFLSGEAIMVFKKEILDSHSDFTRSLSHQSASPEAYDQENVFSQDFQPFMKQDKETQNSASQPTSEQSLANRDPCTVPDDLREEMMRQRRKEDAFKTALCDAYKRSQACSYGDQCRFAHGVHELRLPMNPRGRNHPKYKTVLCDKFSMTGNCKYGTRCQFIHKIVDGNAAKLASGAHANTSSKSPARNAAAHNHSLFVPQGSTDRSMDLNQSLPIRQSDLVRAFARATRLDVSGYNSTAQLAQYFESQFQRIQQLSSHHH

[2] = target: T2, Endoribonuclease toxin MazF (Escherichia coli K-12, UniProt P0AE70); experiment: activation of MazEF endoribonuclease cleavage – biochemical, fluorescence, single-stranded RNA substrate, uHTS hits, dose response (AID 588481); assay type: functional
T2 sequence (P0AE70 whole entry): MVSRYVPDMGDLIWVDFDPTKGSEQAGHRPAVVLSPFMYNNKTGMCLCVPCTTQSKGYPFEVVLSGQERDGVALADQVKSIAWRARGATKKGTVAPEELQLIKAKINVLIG

[3] = target: T3, Sentrin-specific protease 7 (Homo sapiens, UniProt Q9BQF6); assay type: functional;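 further: Luminescence-based dose-response confirmation of ultra-high-throughput screening hits, measuring inhibition of SENP7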
T3 sequence (Q9BQF6 whole entry): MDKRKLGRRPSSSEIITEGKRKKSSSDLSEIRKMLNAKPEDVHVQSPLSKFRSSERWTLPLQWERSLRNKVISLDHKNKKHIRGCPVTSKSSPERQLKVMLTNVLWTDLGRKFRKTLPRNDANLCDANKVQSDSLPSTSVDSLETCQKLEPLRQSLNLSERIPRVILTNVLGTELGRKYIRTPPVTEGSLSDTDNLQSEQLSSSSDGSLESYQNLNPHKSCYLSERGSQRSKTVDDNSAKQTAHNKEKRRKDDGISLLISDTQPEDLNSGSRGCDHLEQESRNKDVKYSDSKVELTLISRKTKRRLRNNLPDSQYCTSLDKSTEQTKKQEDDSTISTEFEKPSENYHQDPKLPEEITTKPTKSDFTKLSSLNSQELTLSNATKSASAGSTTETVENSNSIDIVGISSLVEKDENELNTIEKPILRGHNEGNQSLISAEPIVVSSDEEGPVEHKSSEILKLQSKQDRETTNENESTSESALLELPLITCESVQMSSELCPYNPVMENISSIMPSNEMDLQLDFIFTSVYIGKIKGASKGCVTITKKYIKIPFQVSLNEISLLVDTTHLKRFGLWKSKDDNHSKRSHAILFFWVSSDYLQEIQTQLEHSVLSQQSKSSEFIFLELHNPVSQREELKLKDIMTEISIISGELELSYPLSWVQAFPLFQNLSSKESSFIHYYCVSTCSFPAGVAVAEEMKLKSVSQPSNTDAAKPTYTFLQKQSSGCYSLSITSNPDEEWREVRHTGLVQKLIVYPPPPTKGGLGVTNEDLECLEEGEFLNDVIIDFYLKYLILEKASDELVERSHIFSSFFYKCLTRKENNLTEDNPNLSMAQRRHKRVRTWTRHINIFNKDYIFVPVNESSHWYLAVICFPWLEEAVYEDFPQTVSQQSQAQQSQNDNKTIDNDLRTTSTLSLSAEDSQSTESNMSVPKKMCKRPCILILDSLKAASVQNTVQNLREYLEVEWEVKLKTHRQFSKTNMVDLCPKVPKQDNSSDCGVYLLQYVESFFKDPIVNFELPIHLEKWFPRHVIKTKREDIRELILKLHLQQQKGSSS

[4] = target: T4, Apoptotic protease-activating factor 1 (Homo sapiens, UniProt O14727); assay type: functional
T4 sequence (O14727 whole entry): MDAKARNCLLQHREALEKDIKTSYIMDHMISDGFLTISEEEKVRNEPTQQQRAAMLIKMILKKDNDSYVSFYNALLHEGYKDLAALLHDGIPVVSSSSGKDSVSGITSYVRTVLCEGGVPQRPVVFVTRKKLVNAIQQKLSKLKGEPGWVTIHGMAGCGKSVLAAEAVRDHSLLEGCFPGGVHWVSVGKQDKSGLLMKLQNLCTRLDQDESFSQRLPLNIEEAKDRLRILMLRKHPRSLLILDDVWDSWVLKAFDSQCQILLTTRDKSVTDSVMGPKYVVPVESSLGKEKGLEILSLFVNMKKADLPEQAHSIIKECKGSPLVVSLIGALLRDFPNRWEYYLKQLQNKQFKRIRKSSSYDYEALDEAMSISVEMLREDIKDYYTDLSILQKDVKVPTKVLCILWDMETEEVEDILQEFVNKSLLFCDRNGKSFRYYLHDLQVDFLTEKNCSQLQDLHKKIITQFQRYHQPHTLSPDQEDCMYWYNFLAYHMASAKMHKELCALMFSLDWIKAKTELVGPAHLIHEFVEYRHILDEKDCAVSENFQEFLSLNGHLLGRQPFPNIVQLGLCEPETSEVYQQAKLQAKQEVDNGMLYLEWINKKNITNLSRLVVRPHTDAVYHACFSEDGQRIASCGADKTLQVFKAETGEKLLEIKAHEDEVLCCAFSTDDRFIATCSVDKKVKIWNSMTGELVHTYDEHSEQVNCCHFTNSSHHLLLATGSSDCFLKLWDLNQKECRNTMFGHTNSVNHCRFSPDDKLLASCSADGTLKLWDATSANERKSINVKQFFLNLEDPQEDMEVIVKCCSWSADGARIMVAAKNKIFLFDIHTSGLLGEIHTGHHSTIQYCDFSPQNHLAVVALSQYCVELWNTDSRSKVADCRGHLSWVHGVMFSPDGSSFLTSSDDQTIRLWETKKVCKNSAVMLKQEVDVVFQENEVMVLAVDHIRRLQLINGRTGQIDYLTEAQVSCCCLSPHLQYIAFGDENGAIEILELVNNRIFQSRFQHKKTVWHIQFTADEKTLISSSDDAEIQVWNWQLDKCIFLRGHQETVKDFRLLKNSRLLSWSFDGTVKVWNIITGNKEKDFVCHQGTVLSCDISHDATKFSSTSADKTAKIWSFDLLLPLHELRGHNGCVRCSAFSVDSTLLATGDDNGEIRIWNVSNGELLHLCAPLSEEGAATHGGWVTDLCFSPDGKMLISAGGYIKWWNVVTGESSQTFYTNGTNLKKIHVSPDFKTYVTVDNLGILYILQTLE

[5] = Luminescence-based counterscreen assay for KLF5 inhibitors: dose response cell-based high throughput screening assay to identify cytotoxic compounds using the IEC-6 intestinal epithelial cell line. [Related pubchem assays: 1700 (Primary screen.), 1834 (Confirmation screen.), 1858 (Summary AID.), 1905 (Counterscreen.)]; assay type: functional

Q: What does the source list for `Oc1[nH]c2ccccc2c1N=Nc1ccc(F)cc1`?
A: EC50 [1]: > 300 µM (not active); EC50 [2]: > 99 µM (inactive); IC50 [3]: 1.51 µM (active)

Q: Which results are given for `O=C1C(Nc2ccccc2)=C(N2CCCCC2)C(=O)c2ccccc21`?
A: IC50 [4]: 4.78 µM (active); IC50 [5]: > 39.8 µM (not active)
